Assay results as given in patent US5200549A, “Antipsoriatic agents” (Hoffman-La Roche Inc., priority 1991, dated 1993).

What was measured:
[1] = system: Cholesterol Biosynthesis in HepG2 Cells; experiment: Inhibition of cholesterol biosynthesis in HepG2 cells (3H2O incorporated into cholesterol); format: cell-based; conditions: for activity as cholesterol biosynthesis inhibitors: HepG2 cells, in words; for IC50: Homo sapiens
Method: HepG2 cells are maintained in 175 cm^2 T flasks in Darlington Medium supplemented with 10% fetal bovine serum (FBS). Darlington Medium consists of 3 parts Minimal Essential Medium, 1 part Waymouth's MAB87/3 medium and 3×10^-8 M sodium selenite. This medium is supplemented with 100 U/ml penicillin, 100 ug/ml streptomycin and 2.5 ug/ml Fungizone. In order to establish optimal conditions for the whole cell cholesterol biosynthesis assay, preliminary experiments were performed. 0.25, 0.5, 0.75 or 1×10^6 cells were seeded into 6 well cluster plates in 2 ml of fully supplemented Darlington Medium. The serum supplemented medium was aspirated after 72 hours and replaced with serum free Darlington Medium with antibiotics. After 24, 48 or 72 hours serum free, the cells received either 0.5 or 1 mCi ^3 H2 O/ml medium. This medium was aspirated after 24 hours and the cells were washed twice with phosphate buffered saline. The cells were frozen overnight at -20° C. after which they were harvested from the wells with 1 ml of trypsin-EDTA. Extracted lipids were separated on an HPLC system; cholesterol peaks were collected and counted in a scintillation counter. Results are expressed as the dpm ^3 H2 O incorporated into cholesterol.
In the screening assay the cells received compounds at various concentrations concommitantly with ^3 H2 O. When ethanol was the vehicle, the final ethanol concentration was 0.5%, and control wells with that concentration of ethanol were used in each experiment. Results are expressed as the percent dpm ^3 H2 O incorporated into cholesterol in treated vs control wells. IC50 values are calculated using a linear regression analysis.

human keratinocytes = experiment: Inhibition of proliferation of cultured human keratinocytes (cell count by Coulter Counter); format: cell-based; conditions: Keratinocyte, 168 h, seven days, triplicate, read-out: Percent Inhibition on Keratinocyte Proliferation; for inhibition at 1 µM: 10^-6 M; for inhibition at 0.1 µM: 10^-7 M; for inhibition at 0.01 µM: 10^-8 M; for inhibition at 0.0001 µM: 10^-10 M
Method: Human neonatal foreskins were collected by circumcision and placed into tubes containing DMEM media. Upon arrival at the laboratory the foreskins were mechanically trimmed of excess dermis and treated with a solution of trypsin/EDTA (0.05%/0.02%) at 4° C. overnight. The epidermis was stripped from the dermis, agitated in buffered saline to remove basal keratinocytes and to separate the stratum corneum which was subsequently removed. The separated cells were centrifuged, resuspended in media, counted and the keratinocytes were plated onto a plain plastic culture dish.
The keratinocytes were plated at a density of about 10^5 cells/cm^2in 35 cm^2 dishes. The cells were grown in keratinocyte growth media (KGM®-modified MCDB 153 containing antibiotics by Clonetics of Boulder, Colo.) according to protocols originally developed by Boyce, S. T. and Ham, R. G., J. of Tissue Culture Meth. 9:83-93 (1985). The cells were grown for 5-10 days and changed every 2-3 days with keratinocyte growth media containing 1.5 mM CaCl2 (hereinafter KGM®/1.5 mM CaCl2) until cells reached a 75% confluency by visual observation. All the cultures were incubated in a humidified atmosphere of 5% CO2 at 37° C.
To establish keratinocyte cell cultures as antiproliferative assays, cells prepared as described in the foregoing were washed with PBS and removed from the culture surface with a solution of trypsin/EDTA (0.25%/0.03%). The removed cells were then centrifuged, resuspended in the KGM®/1.5 mM CaCl2 and counted. The cells were then distributed to 6 well plates at 100,000 cells per well as described in the foregoing. […] After 24-48 hours KGM®/1.5 mM CaCl2 which contained test compounds was added to the cells. The cultures maintained for seven days. The media was changed every 2-3 days.
Solutions of the test compounds were prepared as follows: 1 milligram quantities were received in amber glass vials, and stored at -20° C. Sufficient 100% ethanol was added directly to vials to obtain a millimolar solution that was subsequently aliquoted into small amber vials, overlayed with argon gas and stored at -20° C. Each stock solution was thawed once, used and discarded. Aliquots from the stock solutions were diluted directly into medium and then serially diluted from micromolar to 10^-12 M concentrations. Dilutions from 10^-7 M to 10^-12 M had ethanol added for a final concentration of 0.1%. Stock solutions were used within one month. Control cultures were treated with 0.1% ethanol.
For each experiment every culture well received the same number of cells from the same culture source. At the termination of the experiment the number of cells per was determined by the following procedure. Wells were washed twice with PBS and then incubated for approximately 10-20 minutes at 37° C. with a trypsin/EDTA solution (0.25%/03%). PBS plus 0.1% soybean trypsin inhibitor was added and the cells were suspended. An aliquot of the cells was placed into isotonic buffered saline and counted on an electronic particle counter (e.g. Coulter Counter® device by Coulter Electronics of Hialeah, Fla.).
Quantification of proliferation was done by enumerating the number of keratinocyte cells in each well using the Coulter Counter®. Results shown in Table 1 below show the percent reduction of keratinocyte cell number calculated for each of 4 concentrations of test compounds tested according to the formula: [formula]
For statistical analysis, the mean was calculated for all wells in each treatment group. Standard error was determined by nonbiased analysis using a value for the number of wells in each group, preferably N=3.
Each compound was tested in triplicate. The control (ETOH), as noted above, was 0.1% ethanol.

For `C[C@H]1C=C2C=C[C@H](C)[C@H](CC[C@@H]3C[C@@H](O)CC(=O)O3)[C@H]2[C@@H](OC(=O)C(C)(C)Oc2ccc(Cl)cc2)C1` [A, 2-(4-chlorophenoxy)-2-methylpropionic acid [1S-[1α,3α,7β,8β(2R*, 4R*),8aβ]]-1,2,3,7,8,8a-hexahydro-3,7-dimethyl-8-[2-[tetrahydro-4-hydroxy-6-oxo-2H-pyran-2-yl]ethyl]-1-naphthalenyl ester], the “activity as cholesterol biosynthesis inhibitors” value [1] was “show activity as cholesterol biosynthesis inhibitors”, the IC50 ([1]; HepG2, Test I) was 30 nM and the IC50 ([1]; HepG2, Test II) was 500 nM. It also gave an IC50 ([1]; HepG2, Test III) of 101 nM, an inhibition at 1 µM (human keratinocytes) of 49.7% and an inhibition at 0.1 µM (human keratinocytes) of 15.2%. It also gave an inhibition at 0.01 µM (human keratinocytes) of 6.28% and an inhibition at 0.0001 µM (human keratinocytes) of 20.9%.
In the case of `C[C@H]1C=C2C=C[C@H](C)[C@H](CC[C@@H]3C[C@@H](O)CC(=O)O3)[C@H]2[C@@H](OC(=O)C(C)(C)C(C)(F)F)C1` [Compound B, 3,3-difluoro-2,2-dimethylbutanoic acid, [1S-[1α,3α,7β,8β(2R*,4R*)8aβ]]-8-[2-[tetrahydro-4-hydroxy-6-oxo-2H-pyran-2-yl]ethyl]-1,2,3,7,8,8a-hexahydro-3,7-dimethyl-1-naphthalenyl ester], the “activity as cholesterol biosynthesis inhibitors” value [1] is reported as “show activity as cholesterol biosynthesis inhibitors”, the IC50 ([1]; HepG2, Test IV) is reported as 5 nM and the inhibition at 1 µM (human keratinocytes) is reported as 95.8%. For the same compound, the inhibition at 0.1 µM (human keratinocytes) was 31.2%, the inhibition at 0.01 µM (human keratinocytes) was 14.6% and the inhibition at 0.0001 µM (human keratinocytes) was 18%.
In the case of `CC[C@H](C)C(=O)O[C@H]1C[C@@H](C)C=C2C=C[C@H](C)[C@H](CC[C@@H]3C[C@@H](O)CC(=O)O3)[C@H]21` [mevinolin, reference compound], the IC50 ([1]; HepG2, Test I) is reported as 20 nM, the IC50 ([1]; HepG2, Test II) is reported as 100 nM and the IC50 ([1]; HepG2, Test III) is reported as 76 nM. The IC50 ([1]; HepG2, Test IV) was 8 nM.
